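Compound exposure: 48 hours, 5 concentrations, 96-well plates. At the GI50, growth is halved.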 Calls of active or inactive are those of the source. Cut-off read from the data, not from the text of the source: active = GI50 up to about 1.1 µM and inactive = higher.
What was measured:
Assay in all cases: inhibition of tumour cell growth, NCI panel, 48 h
DU-145 = tested on: DU-145
HCT-116 = tested on: HCT-116
HL-60 = tested on: HL-60
K562 = tested on: K562
Malme-3M = tested on: Malme-3M
NCI-H226 = tested on: NCI-H226
NCI-H522 = tested on: NCI-H522
OVCAR-5 = tested on: OVCAR-5
PC-3 = tested on: PC-3
SF-295 = tested on: SF-295
SF-539 = tested on: SF-539
SN12C = tested on: SN12C
SNB-19 = tested on: SNB-19
SW-620 = tested on: SW-620
U-251 = tested on: U-251
UACC-257 = tested on: UACC-257
UACC-62 = tested on: UACC-62
UO-31 = tested on: UO-31
NCI-H460 = tested on: NCI-H460
SK-MEL-2 = tested on: SK-MEL-2

Measured: GI50

CCC(C)N1CN(c2ccccc2)C2(CCN(CCCSc3ccc(F)cc3)CC2)C1=O (centres undefined)
inactive: DU-145 3.03 µM | HCT-116 2.88 µM | HL-60 3.79 µM | K562 2.22 µM | Malme-3M 4.48 µM | NCI-H226 4.34 µM | NCI-H522 5.97 µM | OVCAR-5 2.1 µM | PC-3 6.35 µM | SF-295 2.35 µM | SF-539 2.57 µM | SN12C 3.78 µM | SNB-19 5.52 µM | SW-620 4.06 µM | U-251 3.72 µM | UACC-257 2.74 µM | UACC-62 5.47 µM | UO-31 2.42 µM

O=[N+]([O-])c1cc(Cl)ccc1S(=O)(=O)c1cc(Cl)cc2c1NCCC2
inactive: DU-145 > 100 µM | HCT-116 63.1 µM | HL-60 98.4 µM | K562 24.5 µM | Malme-3M > 100 µM | NCI-H226 39.3 µM | NCI-H460 55.1 µM | OVCAR-5 > 100 µM | PC-3 69.8 µM | SF-295 36.7 µM | SF-539 > 100 µM | SK-MEL-2 > 100 µM | SN12C > 100 µM | SNB-19 > 100 µM | SW-620 > 100 µM | UACC-257 22.4 µM | UACC-62 29.5 µM | UO-31 49.5 µM

COC(=O)Nc1nc2ccccc2[nH]1 [CARBENDAZIM]
inactive: DU-145 5.18 µM | HCT-116 4.21 µM | HL-60 4.26 µM | Malme-3M > 43.9 µM | NCI-H226 10.4 µM | NCI-H460 3.36 µM | OVCAR-5 49.4 µM | PC-3 15.3 µM | SF-295 4.72 µM | SF-539 5.2 µM | SK-MEL-2 17.8 µM | SN12C 21.9 µM | SNB-19 10.1 µM | SW-620 3.57 µM | U-251 4.86 µM | UACC-257 > 61 µM | UACC-62 4 µM | UO-31 20.7 µM

Cc1ccc([N+](=O)[O-])cc1NC(=O)C(=O)C1CCC2=C(Sc3ccccc3N2)C1=O (centres undefined)
inactive: DU-145 > 100 µM | HCT-116 68.2 µM | HL-60 > 100 µM | NCI-H226 58.7 µM | NCI-H460 > 100 µM | NCI-H522 > 100 µM | OVCAR-5 > 100 µM | PC-3 53 µM | SF-295 > 100 µM | SF-539 37.5 µM | SK-MEL-2 > 100 µM | SN12C > 100 µM | SNB-19 > 100 µM | SW-620 > 100 µM | U-251 > 100 µM | UACC-257 > 100 µM | UACC-62 > 100 µM | UO-31 60 µM

CN(C)CCCNCc1cccc2ccccc12
inactive: DU-145 > 100 µM | HCT-116 > 100 µM | HL-60 > 100 µM | K562 > 100 µM | Malme-3M > 100 µM | NCI-H226 > 100 µM | NCI-H460 > 100 µM | OVCAR-5 > 100 µM | PC-3 > 100 µM | SF-295 > 100 µM | SF-539 > 100 µM | SK-MEL-2 > 100 µM | SN12C > 100 µM | SNB-19 > 100 µM | SW-620 > 100 µM | U-251 > 100 µM | UACC-257 > 100 µM | UACC-62 > 100 µM | UO-31 > 100 µM

CC(C)N(c1cc2c(cc1F)c(=O)c(C(=O)O)cn2-c1ccc(N2CCN(C)CC2)cn1)C(C)C
inactive: DU-145 > 100 µM | HCT-116 > 100 µM | HL-60 > 100 µM | K562 > 100 µM | Malme-3M > 100 µM | NCI-H226 > 100 µM | NCI-H460 > 100 µM | OVCAR-5 > 100 µM | PC-3 > 100 µM | SF-295 > 100 µM | SF-539 > 100 µM | SN12C > 100 µM | SNB-19 > 100 µM | SW-620 > 100 µM | U-251 > 100 µM | UACC-257 > 100 µM | UACC-62 > 10 µM | UO-31 > 100 µM

C[C@]12CC(c3ccccc3O1)C(C#N)C(=O)N2 (some centres undefined)
inactive: DU-145 > 100 µM | HCT-116 > 100 µM | HL-60 > 100 µM | K562 > 100 µM | Malme-3M > 100 µM | NCI-H226 > 100 µM | NCI-H460 > 100 µM | OVCAR-5 > 100 µM | PC-3 > 100 µM | SK-MEL-2 > 100 µM | SN12C > 100 µM | SNB-19 > 100 µM | SW-620 > 100 µM | U-251 > 100 µM | UACC-257 > 100 µM | UACC-62 > 100 µM

CCOC(=O)c1nc2ccccc2nc1Oc1ccc(C#N)cc1
inactive: DU-145 > 100 µM | HCT-116 > 100 µM | HL-60 > 100 µM | K562 > 100 µM | Malme-3M > 100 µM | NCI-H226 > 100 µM | NCI-H460 > 100 µM | OVCAR-5 > 100 µM | PC-3 > 100 µM | SF-295 > 100 µM | SF-539 > 100 µM | SK-MEL-2 > 100 µM | SN12C > 100 µM | SNB-19 > 100 µM | SW-620 > 100 µM | U-251 > 100 µM | UACC-257 > 100 µM | UACC-62 > 100 µM | UO-31 > 100 µM
